Measurements: patent US20080254152A1, “Methods for Reducing the Effects of Stress on Skin Condition” (priority 2003, published 2008)
“Also recorded” adds a separate entry of the source.

How the values were obtained:
[1] = test system: ICAM-1 expression in HUVECs; assay: ICAM-1 expression in HUVECs pre-treated 5 days with dexamethasone, then oxidatively stressed with PMA (ELISA); format: cell-based, Human; details: then 1 μM PMA, HUVEC
Method: An in vitro model has been developed to investigate the impact of chronic stress on the inflammatory status of endothelial cells. • a. Cells are grown in 6-well (9.5 cm^2) plates. • b. […] Tissue culture supernatant and cell pellets are harvested at timepoint T0. • d. The cells are oxidatively stressed with 1 μM Phorbol Myristate Acetate (PMA). • e. Tissue culture supernatant and cell pellets were harvested at 6, 24 and 48 hours (T6, T24 and T48, respectively) post-PMA treatment. • f. All tissue culture supernatant was assayed for Lactate Dehydrogenase (LDH), as a measure of cytotoxicity, and Interleukin-6 synthesis. • g. All cells were counted (Beckman Coulter Counter) and pelleted and cell lysate assayed for ICAM-1 expression (Intra Cellular Adhesion Molecule 1).
HUVEC cells (Human umbilical vein endothelial cells, TCS Biologicals) were cultured and passaged in EGM-2 (Endothelial growth medium, Biowhittaker) supplemented with heparin, VEGF (vascular endothelial growth factor), gentamicin sulphate, ascorbic acid, HEGF (Human endothelial growth factor), hydrocortisone, HFGF-B (Human fibroblast growth factor B), R3-IGF-1 (long R insulin-like growth factor 1) and FBS (foetal bovine serum).
Cells were routinely plated out in 6-well tissue culture dishes, at a seeding density of ˜5000 cells/cm^2 in 2 ml complete medium/well, 48 hours before starting the experiment, and incubated at 37° C. in 5% CO2.
Pre-treatment and test solutions were prepared in EGM-2 containing all supplements except hydrocortisone.
Following this, the cells were oxidatively stressed for 24 hours with 1 μM PMA (Sigma P8139).
Receptor antagonists were added to the cells during the pre-treatment period. These included the Glucocorticoid Receptor Antagonist; 2 μM Mifepristone (Sigma M8046) and two CRH receptor antagonists; 200 nM Astressin (Sigma A4933) and 200 nM α-helical CRF peptide antagonist (Sigma C2917).
Any change in cell morphology was noted before the cells were harvested. Both the tissue culture supernatant and the endothelial cells were harvested after the five-day pre-treatment period (T0), at 6 hours and 24 hours after addition of PMA (T6 and T24) and at 24 hours after removal of the PMA (T48). All tissue culture supernatants were stored at −20° C.
All cell pellets were lysed on ice for 30 minutes in 1 ml cell lysis buffer per 2.5×10^6 cells. The lysis buffer contained 1% NP-40, 0.1% sodium deoxycholate, 0.1% SDS, 6 mM sodium chloride and 0.05M Tris at pH 7.6. Protease inhibitor cocktail ([…]; Sigma P8340) was added prior to use at a level of 10 μl per ml of lysis buffer. The partially lysed cell pellets were completely homogenised with a pellet pestle and unwanted cell debris removed by centrifugation for 20 minutes at 20,000 g at 4° C. The clarified cell lysate was frozen at −80° C. until needed.
The total protein concentration of each cell lysate was measured using the Pierce BCA protein assay kit. A set of eight standard solutions ranging from 0 to 1200 μg/ml protein was prepared from the supplied 2 mg/ml BSA stock solution. 10 μl of standard or cell lysate was added to duplicate wells of a flat-bottomed, 96-well microtitre plate. The reagent solution was prepared according to the kit instructions from 50 parts reagent A and 1 part reagent B. 200 μl of the final reagent was added to each well of the microtitre plate. The plate was mixed, covered and incubated at 37° C. for 30 minutes and absorbance read at 562 nm.
ICAM-1 protein in each cell lysate was estimated using the Human sICAM-1 DuoSet ELISA kit (R&D Systems DY720) according to the manufacturer's instructions.
The capture antibody was diluted to a final concentration of 4 μg/ml in PBS and 100 μl was used to coat each well of a 96-well microtitre plate overnight at room temperature. The plate was then washed three times with wash buffer (0.05% Tween 20 in PBS).

[2] = test system: MMP-1 expression in human neonatal dermal fibroblast cells; assay: Active MMP-1 in neonatal-derived human dermal fibroblasts after chronic dexamethasone and PMA; format: cell-based; details: agent added during dexamethasone pre-treatment; dermal fibroblasts
Method: (§1) In this study, to understand better the effect of chronic stress on dermal matrix remodelling in the skin, we have therefore measured changes in markers of dermal matrix degradation (MMP-1) and dermal matrix synthesis (Procollagen I) in chronically glucocorticoid-treated primary human dermal fibroblasts, following acute stress with PMA. The experimental approach is similar to that described in example 1 except that the cells tested are dermal fibroblasts and cells are assayed for expression of procollagen-1, MMP-1 and MMP-9 expression.
(§2) Primary human dermal fibroblast cells were cultured and passaged in DMEM (Gibco) supplemented with 10% FBS (foetal bovine serum). Cells were routinely plated out in 6-well tissue culture dishes, at a seeding density of ˜5000 cells/cm^2 in 2 ml complete medium/well for 24 hours, and incubated at 37° C. in 5% CO2. Media was removed and cells grown in DMEM & 1% FBS, 24 hours prior to treatments.
(§3) Pre-treatment and test solutions were prepared in DMEM containing low serum (1% FBS). […] Following this, the cells were oxidatively stressed for 24 hours with 1 μM PMA (Sigma P8139).
MMP-1 and MMP-9 protein in each cell supernatant was estimated using the Human active MMP-1 and MMP-9 Fluorokine enzyme kit (R&D Systems F1M00 and F9M00, respectively), according to the manufacturer's instructions.
Six MMP-1 and MMP-9 standards were prepared in calibrator diluent at concentrations ranging from 0.39 to 12.5 ng/ml and 0.25 to 16 ng/ml, respectively. 100 μl of assay diluent and 150 μl of tissue culture supernatant or standard was added to duplicate wells. The plate was incubated at room temperature for 3 hours on a horizontal orbital plate shaker before being washed four times with wash buffer. 200 μl of APMA was added to each well and the plate incubated at 37° C. for 2 hours in a humidified environment and protected from the light. The plate was washed as before. Each well received 200 μl of substrate solution and the plate incubated at 37° C. for 17-20 hours in a humidified environment and protected from the light. The relative fluorescence unit (RFU) of each well was determined using a fluorescence plate set with 1×20 mS integration time, plate speed ˜6; excitation wavelength set to 320 nm and emission wavelength set to 405 nm.
A standard curve was plotted of mean RFU versus MMP-1 and MMP-9 concentration (respectively), and the line of best fit calculated by regression analysis. The unknown concentration of either active MMP-1 or MMP-9 protein in all of the samples was estimated from this.
(§4) The same methods were used as described in Example 2, except that various test agents were added to the cells during the pre-treatment period.

[3] = test system: procollagen-1 expression in human neonatal dermal fibroblast cells; assay: Procollagen I C-peptide EIA in neonatal-derived human dermal fibroblasts after chronic dexamethasone and PMA; format: cell-based; details: agent added during dexamethasone pre-treatment; dermal fibroblasts
Method: as §1, §2, §3
Collagen I is synthesised as a precursor molecule, Procollagen I. The amount of free propeptide therefore, reflects stoichiometrically, the amount of collagen I synthesised. The Procollagen Type I C-peptide Enzyme Immunoassay (EIA) kit allows for the quantitative determination of Procollagen Type I C-peptide (PIP).
Eight PIP standards were prepared in sample diluent at concentrations ranging from 0 to 640 ng/ml. 100 μl of antibody-Peroxidase conjugate solution and 20 μl of cell lysate (1 μg protein) or standard was added to duplicate wells. The plate was sealed and incubated at 37° C. for 3 hours before being washed four times with 400 μl of PBS. Each well then received 100 μl of substrate solution and the plate incubated at room temperature, on the benchtop, for 15 minutes. After this period, 100 μl stop solution was added to each well and absorbance measured at 450 nm with a plate reader.
A standard curve was plotted of mean absorbance versus PIP concentration and the line of best fit calculated by regression analysis. The unknown concentration of PIP in all the samples was estimated from this.
as §4

[4] = agent 10 μM during 5-day 1 μM dexamethasone pre-treatment
[5] = agent 1 μM during 5-day 1 μM dexamethasone pre-treatment

Molecule: CCNC(=O)CC[C@H](N)C(=O)O [Theanine]
- Effective? (suppression of ICAM-1 synthesis in chronically stressed endothelial cells) [1, 4]: No

Molecule: Mevinolin
- Effective? (suppression of ICAM-1 synthesis in chronically stressed endothelial cells) [1, 5]: Yes

Molecule: Oc1ccc(C=Cc2cc(O)cc(O)c2)cc1 [Resveratrol]
- Effective? (suppression of ICAM-1 synthesis in chronically stressed endothelial cells) [1, 4]: No

Molecule: C=C1[C@@H](O)[C@@H]2O[C@]3(CC[C@H](/C=C/[C@@H](C)[C@@H]4CC(C)=C[C@@]5(O[C@H](C[C@@](C)(O)C(=O)O)CC[C@H]5O)O4)O3)CC[C@H]2O[C@@H]1[C@@H](O)C[C@H](C)[C@H]1O[C@@]2(CCCCO2)CC[C@H]1C [Okadaic acid]
- Effective? (suppression of ICAM-1 synthesis in chronically stressed endothelial cells) ([1]; agent 1 nM during 5-day 1 μM dexamethasone pre-treatment): Yes

Molecule: CC(C)=CCC[C@](C)(O[C@@H]1O[C@H](CO[C@@H]2O[C@H](CO)[C@@H](O)[C@H](O)[C@H]2O)[C@@H](O)[C@H](O)[C@H]1O)[C@H]1CC[C@]2(C)[C@@H]1[C@H](O)C[C@@H]1[C@@]3(C)CC[C@H](O[C@@H]4O[C@H](CO)[C@@H](O)[C@H](O)[C@H]4O[C@@H]4O[C@H](CO)[C@@H](O)[C@H](O)[C@H]4O)C(C)(C)[C@@H]3CC[C@]12C [Ginsenoside Rb1]
- Effective? (suppression of ICAM-1 synthesis in chronically stressed endothelial cells) [1, 5]: Yes
- Effect on glucocorticoid effects on levels of MMP-1 expression following PMA-induced acute stress [2]: inhibited the effects of glucocorticoid
- Effect on glucocorticoid effects on levels of procollagen expression following PMA-induced acute stress [3]: inhibited the effects of glucocorticoid

Molecule: COc1cc(/C=C/C(=O)CC(=O)/C=C/c2ccc(O)c(OC)c2)ccc1O [Curcumin]
- Effective? (suppression of ICAM-1 synthesis in chronically stressed endothelial cells) [1, 5]: Yes
- Effect on glucocorticoid effects on levels of MMP-1 expression following PMA-induced acute stress [2]: inhibited the effects of glucocorticoid
- Effect on glucocorticoid effects on levels of procollagen expression following PMA-induced acute stress [3]: inhibited the effects of glucocorticoid

Molecule: CC(C)=CCC[C@](C)(O[C@@H]1O[C@H](CO[C@@H]2O[C@@H](CO)[C@H](O)[C@H]2O)[C@@H](O)[C@H](O)[C@H]1O)[C@H]1CC[C@]2(C)[C@@H]1[C@H](O)C[C@@H]1[C@@]3(C)CC[C@H](O[C@@H]4O[C@H](CO)[C@@H](O)[C@H](O)[C@H]4O[C@@H]4O[C@H](CO)[C@@H](O)[C@H](O)[C@H]4O)C(C)(C)[C@@H]3CC[C@]12C [Ginsenoside Rc]
- Effective? (suppression of ICAM-1 synthesis in chronically stressed endothelial cells) [1, 5]: Yes
- Effect on glucocorticoid effects on levels of MMP-1 expression following PMA-induced acute stress [2]: inhibited the effects of glucocorticoid
- Effect on glucocorticoid effects on levels of procollagen expression following PMA-induced acute stress [3]: inhibited the effects of glucocorticoid

Molecule: Cc1cccc(Nc2cc(Cl)nc(SCC(=O)O)n2)c1C [WY14643]
- Effective? (suppression of ICAM-1 synthesis in chronically stressed endothelial cells) [1, 4]: No

Molecule: CC(C)CC[C@@H](O)[C@@H](C)[C@H]1CC[C@H]2[C@@H]3CC=C4C[C@@H](O)CC[C@]4(C)[C@H]3CC[C@]12C [22-OH-cholesterol, 22-(R)-Hydroxycholesterol]
- Effective? (suppression of ICAM-1 synthesis in chronically stressed endothelial cells) [1, 5]: Yes

Molecule: O=C(O)/C=C/c1ccc(O)c(O)c1 [Caffeic acid]
- Effective? (suppression of ICAM-1 synthesis in chronically stressed endothelial cells) ([1]; agent 150 μM during 5-day 1 μM dexamethasone pre-treatment): No

Molecule: CC#C[C@]1(O)CC[C@H]2[C@@H]3CCC4=CC(=O)CCC4=C3[C@@H](c3ccc(N(C)C)cc3)C[C@@]21C [Mifepristone]
- ICAM-1 expression compared with cells without chronic GC treatment ([1]; 2 μM mifepristone during chronic 1 μM glucocorticoid pre-treatment): below that seen in cells that had not received chronic GC treatment
- Effect on oxidative stress-induced increase in ICAM-1 expression ([1]; 2 μM mifepristone during chronic 1 μM glucocorticoid pre-treatment, FIG. 3): significant reduction; also recorded: completely blocked

Molecule: Alliin
- Effective? (suppression of ICAM-1 synthesis in chronically stressed endothelial cells) [1, 4]: No

Molecule: C/C(=C\CC/C(C)=C/CCC1[C@](C)(O)CC[C@H]2C(C)(C)C(=O)CC[C@]12C)CC/C=C(\C)C(=O)O (stereo partly shown) [Commipheric acid]
- Effective? (suppression of ICAM-1 synthesis in chronically stressed endothelial cells) ([1]; agent 10 μg/ml during 5-day 1 μM dexamethasone pre-treatment): Yes
- Effect on glucocorticoid effects on levels of MMP-1 expression following PMA-induced acute stress [2]: inhibited the effects of glucocorticoid
- Effect on glucocorticoid effects on levels of procollagen expression following PMA-induced acute stress [3]: inhibited the effects of glucocorticoid
